Assay results: the NIST ThermoML archive (doi:10.1016/j.jct.2008.12.011)

Key:
[1] = mn = molality of the nth substance listed, in mol/kg; settings: 101 kPa, Liquid, Vibrating tube method
[2] = cn = amount concentration of the nth substance listed, in mol/dm3; settings: 101.3 kPa, Liquid, Vibrating tube method

O=S(=O)(O)CC(O)CNC(CO)(CO)CO (stereo unspecified) + O
mass density [kg/m3], [1]
Settings | 298.15 K | 303.15 K | 310.15 K | 318.15 K | 323.15 K | 328.15 K
m1 = 0.0629 | 1003.59 | 1002.16 | 999.78 | 996.62 | 994.41 | 992.05
m1 = 0.123 | 1009.62 | 1008.14 | 1005.72 | 1002.52 | 1000.3 | 997.92
m1 = 0.1921 | 1016.37 | 1014.86 | 1012.39 | 1009.15 | 1006.89 | 1004.5
m1 = 0.4659 | 1041.93 | 1040.26 | 1037.6 | 1034.18 | 1031.71 | 1028.8
m1 = 0.7644 | 1069.04 | 1066.83 | 1063.04 | 1059.95 | 1056.86 | 1054.93

O=S(=O)(O)CCCNC(CO)(CO)CO [3-[tris(hydroxymethyl)methylamino]-1-propanesulfonic acid] + O
mass density [kg/m3], [1]
Settings | m1 = 0.5011 | m1 = 0.8957 | m1 = 1.224 | m1 = 1.793 | m1 = 2.213 | m1 = 2.423 | m1 = 2.803
298.15 K | 1046.07 | 1064.95 | 1084.21 | 1117.87 | 1140.59 | 1152.07 | 1170.75
303.15 K | 1044.13 | 1062.96 | 1082.18 | 1115.68 | 1138.38 | 1149.81 | 1168.43
310.15 K | 1041.22 | 1059.95 | 1079.15 | 1112.62 | 1135.28 | 1146.62 | 1165.22
318.15 K | 1037.23 | 1055.92 | 1075.09 | 1108.55 | 1131.19 | 1142.49 | 1161.04
323.15 K | 1034.92 | 1053.59 | 1072.68 | 1106.08 | 1128.7 | 1139.98 | 1158.52
328.15 K | 1032.67 | 1051.25 | 1070.31 | 1103.67 | 1126.12 | 1137.32 | 1155.87

[Br-].[K+] [potassium bromide] + O
mass density [kg/m3], [2]
Settings | c1 = 1 | c1 = 1.5 | c1 = 2 | c1 = 2.5 | c1 = 3 | c1 = 3.5 | c1 = 4
298.15 K | – | 1119.52 | – | 1199.54 | 1239.34 | 1279.04 | –
303.15 K | 1078.68 | 1117.57 | 1160.04 | 1197.23 | 1236.89 | 1276.29 | 1320.56
308.15 K | 1075.81 | 1114.62 | 1156.73 | 1193.88 | 1233.52 | 1272.28 | 1316.47
313.15 K | 1072.09 | 1110.71 | 1152.65 | 1189.67 | 1229.2 | 1267.53 | 1311.63
318.15 K | 1066.6 | 1106.96 | 1149.76 | 1186.74 | 1226.19 | 1264.46 | 1308.52
323.15 K | 1063.02 | 1102.44 | 1144.45 | 1182.53 | 1222.18 | 1260.51 | 1305.31
